Experimental data reported in patent US20210137886A1, “INHIBITORS OF METALLO-BETA-LACTAMASES” (Oxford University Innovation Limited, priority 2017, published 2021).

Experiments:
IMP-1 (Imipenemase-1) = IMP-1 (Imipenemase-1) (Serratia marcescens, UniProt P52699); assay: Metallo-β-lactamase enzyme inhibition, standard assay protocol
[1] = biological target: NDM-1 (New Delhi metallo-β-lactamase-1) (Klebsiella pneumoniae, UniProt C7C422); assay: as above
[2] = biological target: VIM-2 (Veronese metallo-β-lactamase-2) (Escherichia coli, UniProt Q5U7L7); assay: as above
[3] = biological target: VIM-1 (Veronese metallo-β-lactamase-1) (Pseudomonas aeruginosa, UniProt A0A0F7KYQ8); assay: as above
[4] = test system: Klebsiella pneumoniae NDM-1; assay: Meropenem MIC, CLSI broth or agar microdilution, strain entry 6; format: cell-based; conditions: strain entry 6, Klebsiella pneumoniae NDM-1
Source text: (§1) In each case DMSO was used to dissolve inhibitors.

[5] = test system: Pseudomonas aeruginosa VIM-2; assay: Meropenem MIC, CLSI broth or agar microdilution, strain entry 5; format: cell-based; conditions: strain entry 5, Pseudomonas aeruginosa VIM-2
Source text: as §1

[6] = test system: Klebsiella pneumoniae IMP-4; assay: Meropenem MIC, CLSI broth or agar microdilution, strain entry 1; format: cell-based
[7] = test system: Klebsiella pneumoniae NDM-1 + DHA + CTX − M-15; assay: Meropenem MIC, CLSI broth or agar microdilution, strain entry 7; format: cell-based
E. coli IMP-4 = assay: Meropenem MIC, CLSI broth or agar microdilution, strain entry 2; format: cell-based
[8] = test system: Klebsiella pneumoniae VIM-1; assay: Meropenem MIC, CLSI broth or agar microdilution, strain entry 4; format: cell-based
E. coli VIM-1 = assay: Meropenem MIC, CLSI broth or agar microdilution, strain entry 3; format: cell-based; conditions: strain entry 3, E. coli VIM-1
Source text: as §1

Sequence of IMP-1 (Imipenemase-1) (P52699 19-246, looked up, species assumed): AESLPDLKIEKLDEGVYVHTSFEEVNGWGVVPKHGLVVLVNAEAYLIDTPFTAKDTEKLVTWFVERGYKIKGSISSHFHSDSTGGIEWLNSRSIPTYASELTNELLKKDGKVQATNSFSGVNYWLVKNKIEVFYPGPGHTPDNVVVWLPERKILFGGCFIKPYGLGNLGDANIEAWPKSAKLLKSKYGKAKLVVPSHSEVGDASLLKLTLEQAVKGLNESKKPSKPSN
Sequence of NDM-1 (New Delhi metallo-β-lactamase-1) (C7C422 29-270, looked up, species assumed): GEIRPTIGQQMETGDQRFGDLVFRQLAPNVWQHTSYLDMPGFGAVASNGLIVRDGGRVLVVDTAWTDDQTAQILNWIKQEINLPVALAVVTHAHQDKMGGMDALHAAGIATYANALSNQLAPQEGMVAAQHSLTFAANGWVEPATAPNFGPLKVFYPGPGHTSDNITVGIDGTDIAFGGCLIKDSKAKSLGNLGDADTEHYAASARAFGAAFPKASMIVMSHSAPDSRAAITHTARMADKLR

## O=C(O)c1[nH]c2c(Br)csc2c1-c1cc(Cl)cc(Cl)c1 [Example 1, 3-bromo-6-(3,5-dichlorophenyl)-4H-thieno[3,2-b]pyrrole-5-carboxylic acid]
IMP-1 (Imipenemase-1)
  IC50: 1000 nM
[1]
  IC50: 63.1 nM
[2]
  IC50: 39.8 nM
[3]
  IC50: 631 nM

## O=C(O)c1[nH]c2c(C3CC3)csc2c1-c1cc(Cl)cc(Cl)c1 [Example 2, 3-cyclopropyl-6-(3,5-dichlorophenyl)-4H-thieno[3,2-b]pyrrole-5-carboxylic acid]
IMP-1 (Imipenemase-1)
  IC50: 79.4 nM
[1]
  IC50: 15.8 nM
[2]
  IC50: 5.01 nM
[4]; 2 mg/L inhibitor
  Change in MIC value of meropenem: −1 log2 difference
[4]; 4 mg/L inhibitor
  Change in MIC value of meropenem: −1 log2 difference
[4]; 8 mg/L inhibitor
  Change in MIC value of meropenem: −2 log2 difference
[5]; 2 mg/L inhibitor
  Change in MIC value of meropenem: 0 log2 difference
[5]; 4 mg/L inhibitor
  Change in MIC value of meropenem: 0 log2 difference
[5]; 8 mg/L inhibitor
  Change in MIC value of meropenem: 0 log2 difference
[6]; 2 mg/L inhibitor
  Change in MIC value of meropenem: −2 log2 difference
[6]; 4 mg/L inhibitor
  Change in MIC value of meropenem: −2 log2 difference
[6]; 8 mg/L inhibitor
  Change in MIC value of meropenem: −2 log2 difference
[7]; 2 mg/L inhibitor
  Change in MIC value of meropenem: −1 log2 difference
[7]; 4 mg/L inhibitor
  Change in MIC value of meropenem: −2 log2 difference
[7]; 8 mg/L inhibitor
  Change in MIC value of meropenem: −3 log2 difference
E. coli IMP-4; 2 mg/L inhibitor
  Change in MIC value of meropenem: −2 log2 difference
E. coli IMP-4; 4 mg/L inhibitor
  Change in MIC value of meropenem: −2 log2 difference
E. coli IMP-4; 8 mg/L inhibitor
  Change in MIC value of meropenem: −3 log2 difference
[8]; 2 mg/L inhibitor
  Change in MIC value of meropenem: −2 log2 difference
[8]; 4 mg/L inhibitor
  Change in MIC value of meropenem: −2 log2 difference
[8]; 8 mg/L inhibitor
  Change in MIC value of meropenem: −2 log2 difference
E. coli VIM-1; 2 mg/L inhibitor
  Change in MIC value of meropenem: −1 log2 difference
E. coli VIM-1; 4 mg/L inhibitor
  Change in MIC value of meropenem: −1 log2 difference
E. coli VIM-1; 8 mg/L inhibitor
  Change in MIC value of meropenem: −1 log2 difference
[3]
  IC50: 126 nM

## O=C(O)c1cc2scc(Br)c2[nH]1 [Example 3, 3-bromo-4H-thieno[3,2-b]pyrrole-5-carboxylic acid]
IMP-1 (Imipenemase-1)
  IC50: > 251000 nM
[1]
  IC50: 126000 nM
[2]
  IC50: 15800 nM
[3]
  IC50: > 251000 nM

## O=C(O)c1[nH]c2c(Br)csc2c1-c1ccc(F)cc1 [Example 4, 3-Bromo-6-(4-fluorophenyl)-4H-thieno-[3,2-b]pyrrole-5-carboxylic acid]
IMP-1 (Imipenemase-1)
  IC50: 2510 nM
[1]
  IC50: 200 nM
[2]
  IC50: 316 nM
[3]
  IC50: 5010 nM

## O=C(O)c1[nH]c2c(-c3ccc(F)cc3)csc2c1-c1ccc(F)cc1 [Example 5, 3,6-Bis(4-fluorophenyl)-4H-thieno-[3,2-b]pyrrole-5-carboxylic acid]
IMP-1 (Imipenemase-1)
  IC50: 2510 nM
[1]
  IC50: 12600 nM
[2]
  IC50: 10000 nM
[3]
  IC50: > 39800 nM

## C=C(C)c1csc2c(-c3ccc(F)cc3)c(C(=O)O)[nH]c12 [Example 6, 3-isopropenyl-6-(4-fluorophenyl)-4H-thieno-[3,2-b]pyrrole-5-carboxylic acid]
IMP-1 (Imipenemase-1)
  IC50: 501 nM
[1]
  IC50: 39.8 nM
[2]
  IC50: 126 nM
[4]; 2 mg/L inhibitor
  Change in MIC value of meropenem: −1 log2 difference
[4]; 4 mg/L inhibitor
  Change in MIC value of meropenem: −1 log2 difference
[4]; 8 mg/L inhibitor
  Change in MIC value of meropenem: −1 log2 difference
[5]; 2 mg/L inhibitor
  Change in MIC value of meropenem: 0 log2 difference
[5]; 4 mg/L inhibitor
  Change in MIC value of meropenem: 0 log2 difference
[5]; 8 mg/L inhibitor
  Change in MIC value of meropenem: 0 log2 difference
[6]; 2 mg/L inhibitor
  Change in MIC value of meropenem: −2 log2 difference
[6]; 4 mg/L inhibitor
  Change in MIC value of meropenem: −2 log2 difference
[6]; 8 mg/L inhibitor
  Change in MIC value of meropenem: −2 log2 difference
[7]; 2 mg/L inhibitor
  Change in MIC value of meropenem: −1 log2 difference
[7]; 4 mg/L inhibitor
  Change in MIC value of meropenem: −1 log2 difference
[7]; 8 mg/L inhibitor
  Change in MIC value of meropenem: −1 log2 difference
E. coli IMP-4; 2 mg/L inhibitor
  Change in MIC value of meropenem: −2 log2 difference
E. coli IMP-4; 4 mg/L inhibitor
  Change in MIC value of meropenem: −2 log2 difference
E. coli IMP-4; 8 mg/L inhibitor
  Change in MIC value of meropenem: −2 log2 difference
[8]; 2 mg/L inhibitor
  Change in MIC value of meropenem: −1 log2 difference
[8]; 4 mg/L inhibitor
  Change in MIC value of meropenem: −1 log2 difference
[8]; 8 mg/L inhibitor
  Change in MIC value of meropenem: 0 log2 difference
E. coli VIM-1; 2 mg/L inhibitor
  Change in MIC value of meropenem: −1 log2 difference
E. coli VIM-1; 4 mg/L inhibitor
  Change in MIC value of meropenem: 0 log2 difference
E. coli VIM-1; 8 mg/L inhibitor
  Change in MIC value of meropenem: −1 log2 difference
[3]
  IC50: 631 nM
